Laboratory results as given in patent US10100011B2, “Pentadienoyl piperidine derivative and use thereof” (Industry-Academic Cooperation Foundation, Yonsei University, priority 2014, dated 2018).

Experiments:
3T3L1 cells = test: Adipocyte differentiation inhibition in preadipocytes (Oil-red O staining); type: cell-based, mouse; settings: for adipocyte differentiation inhibition effect (in words): different concentrations
Procedure: Preadipocytes, 3T3L1 cells, were aliquoted into a 12-well plate and cultured in a DMEM medium containing 1% penicillin-streptomycin, 1% nonessential amino acid, and 10% fetal bovine serum (FBS) in a 5% CO2 incubator at 37° C. until confluence. The 3T3L1 cells grown to confluence were cultured for two days in a medium containing 0.5 mM isobutyl-methylxanthine, 1 μM dexamethasone (MDI), and 1 μg/ml insulin, thereby being differentiated into adipocytes. Subsequently, the differentiated adipocytes were further cultured for two days in a DMEM medium including 1 μg/ml insulin, thereby being differentiated into mature adipocytes. Subsequently, the differentiated mature adipocytes were further cultured for 10 days while replacing a used DMEM medium with a new DMEM medium every two days. As a result, completely differentiated adipocytes were formed.
3T3-L1 cells were treated with each of a total of four novel compound types at different concentrations every two days from the first day of cell differentiation induction by addition of DMI. Each of the derivative compounds was dissolved in DMSO and then used. A negative control group including only DMSO was included in this experiment. Cell culture was carried out for 14 days. When differentiation was completed, a medium was removed and lipid droplets contained in differentiated adipocytes were stained. To stain the lipid droplets, cells were washed with phosphate buffered saline (PBS) twice and then fixed with 10% buffered neutral formalin for one hour, followed by washing with PBS once. Subsequently, 1 ml of Oil-red-O dye for staining lipid droplets red was fed into a 12-well plate and lipid droplets were stained for one hour, followed by washing with distilled water twice. To measure the concentration of neutral fat contained in the differentiated 3T3L1 cells, the stained lipid droplets were dissolved in 1 ml of isobutanol, followed by measuring an O.D value at 600 nm.

C57BL/6J mice = test: Body weight and visceral fat weight in mice fed high-fat diet; type: in vivo, mouse; settings: high-fat diet with about 0.05% compound (sibutramine about 0.01%), 10 weeks
Procedure: An obesity induction diet used in this experiment was a high-fat diet (HFD: 40% fat calories, 17 g of lard+3% corn oil/100 g diet), and the compositions of diets including the LJ-2501, LJ-2488, LJ-2495, LJ-2496 compounds were identical to that of HFD, except that each of the compounds was included in an amount of about 0.05% (Table 2). As a control drug, an anti-obesity drug, sibutramine (Sibut), was added in an amount of about 0.01% to the high-fat diet and a normal diet group (Chow) was fed with commercial rodent chow.
5-week old 40 male C57BL/6J mice (Orient Bio., Korea) were fed with hard feed and accommodated in a laboratory environment for one week. Subsequently, in accordance with a randomized block method, the mice were randomly grouped into a normal diet group, a high-fat diet control group, two experimental substance groups, and […] and raised for a total of 10 weeks (n=8/group). Diets were supplied with water between 10 am and 11 am every day. An intake amount was measured every day and the body weights of the mice were measured every week. To prevent temporal weight change due to feed intake, feedboxes were removed and, after two hours, the body weights were measured. The experimental animals were fasted for 12 hours or more and then anesthetized with diethyl ether, followed by collecting blood, liver, and visceral adipose tissues (epididymal fat, perirenal fat, mesenteric fat, and retroperitoneal fat). The collected samples were washed with 0.1 M phosphate buffered saline (pH 7.4) and then weighed. Blood samples collected from abdominal aortas were centrifuged at 1000×g for 15 minutes, thereby separating plasma.

Structure (SMILES)	EC50 (3T3L1 cells; Mus musculus, 3T3-L1, treated every two days during 14 days differentiation, Oil-red O O.D. 600 nm, read-out: preadipocyte differentiation inhibition effect, EC50 value)	visceral fat reduction effect, change vs HFD (given with minus sign) (C57BL/6J mice)	weight reduction effect, change in cumulative weight gain vs HFD (given with minus sign) (C57BL/6J mice)	adipocyte differentiation inhibition effect (in words) (3T3L1 cells)
COc1ccc(OC)c(/C=C/C=C/C(=O)N2CCCCC2)c1 [LJ-2488, (2E,4E)-5-(2,5-dimethoxyphenyl)-1-(piperine-1-yl)penta-2,4-diene-1-one]	2800 µM	−6%	−14%	–
CCOc1ccc(/C=C/C=C/C(=O)N2CCCCC2)cc1 [LJ-2495, (2E,4E)-5-(4-ethoxyphenyl)-1-(piperine-1-yl)penta-2,4-diene-1-one]	–	–	–	did not exhibit an adipocyte differentiation inhibition effect
CCCOc1ccc(/C=C/C=C/C(=O)N2CCCCC2)cc1 [LJ-2496, (2E,4E)-1-(piperine-1-yl)-5-(4-propoxyphenyl)penta-2,4-diene-1-one]	–	–	–	did not exhibit an adipocyte differentiation inhibition effect
CC(C)CC(N(C)C)C1(c2ccc(Cl)cc2)CCC1 (stereo not shown) [sibutramine, reference compound]	–	−22%	−33%	–
